The test system of one experiment is VZV. Description: VZV plaque reduction assay in WI-38 cells. The following applies: Human alphaherpesvirus 3, 6-7 days, 37° C, read-out: ID50 VZV. In kind it is cell-based, varicella zoster virus, strain ELLEN. The procedure: (§1) Assays were performed in cell culture systems to determine the concentrations of compounds that are effective in preventing several kinds of viral infections.
(§2) HSV-1 (herpes simplex virus type 1, strain Schooler), HSV-2 (herpes simplex virus type 2, strain 186), VZV (varicella zoster virus, strain ELLEN), HCMV (human cytomegalovirus, strain AD 169), MuLV (murine leukemia virus, strain CAS), HIV (human immunodeficiency virus, strain HTLV-IIIB).
(§3) HSV-1, HSV-2, HCMV, and VZV antiviral assays: Virus was adsorbed to WI-38 cell culture monolayers in 6 well culture plates (Costar, Cambridge, Mass.) for 1 hour prior to addition of maintenance medium containing duplicate dilutions of the test compound. Inhibition of plaque development was evaluated on fixed and stained monolayers after 4 days incubation at 37° C. for HSV-1 and HSV-2 and after 6-7 days incubation at 37° C. for HCMV and VZV. ID50 values were determined from the drug concentration which conferred at least a 50% plaque reduction compared to virus controls.
Background: Plaques are areas of infected cells; plaque reduction assays count them against a control.

The next experiment has as its system HCMV. Briefly: HCMV plaque reduction assay in WI-38 cells. The format is cell-based, human cytomegalovirus, strain AD 169. To be noted: Human betaherpesvirus 5, 6-7 days, 37° C, read-out: ID50 HCMV. On the procedure: as §1, §2, §3
The next experiment relates to HSV-2. Description: HSV-2 plaque reduction assay in WI-38 cells. In kind it is cell-based, herpes simplex virus type 2, strain 186. To be noted: Human alphaherpesvirus 2, WI-38, 96 h, read-out: ID50 HSV-2. On the procedure:
as §1, §2, §3

The subject of another experiment is HIV. Briefly: HIV antiviral assay, inhibition of CPE in CEM cells (XTT-PMS). The format is cell-based, strain HTLV-IIIB. The following applies: Human immunodeficiency virus 1, CCRF-CEM, 168 h, 7 days, read-out: ID50 HIV. On the procedure:
as §1, §2
HIV antiviral assay: Suspensions of CEM(Nara and Fischinger, Nature, 332:469, 1988) cells were infected at a multiplicity of infection (e.g. virus/cell) of 0.12 with HIV (strain HTLV-III B). […] Following incubation, viable cell numbers were counted in each well using a colorimetric assay following incubation of cells with XTT-PMS solution (XTT tetrazolium reagent plus phenazine methosulfate PMS).
Percent reduction of viral cytopathic effect (CPE) in drug treated compared to untreated virus infected cells, and percent reduction of cell viability in drug treated uninfected cells compared to untreated controls were calculated and plotted versus the drug concentrations tested. From these plots, the IDso (the minimum drug concentration that inhibits CPE by 50%) for each drug was calculated.

Each structure is given as a SMILES string. Some results are limits rather than exact numbers.

For the compound `Nc1nc2c(nnn2[C@H]2C[C@@H](CO)[C@@H]2CO)c(=O)[nH]1` (relative stereo) [(1α,2β,3α)-5-Amino-3-[2,3-bis(hydroxymethyl)cyclo-butyl]-3,6-dihydro-7H-1,2,3-triazolo[4,5-d]-pyrimidin-7-one], the IC50 in the experiment on VZV was 3.8 to 38 µM.
As to `O=c1[nH]c(=O)n([C@H]2C[C@@H](CO)[C@@H]2CO)cc1I` (relative stereo) [(1α,2β,3α)-1-[2,3-Bis(hydroxymethyl)cyclobutyl]-5-iodo-2,4(1H,3H)-pyrimidinedione], the IC50 with HCMV and with HSV-2 was more than 284 µM in each case.
For `Nc1nc2c(ncn2[C@H]2C[C@@H](CO)[C@@H]2CO)c(=O)[nH]1` (relative stereo) [(1α,2β,3α)-9-[2,3-Bis(hydroxymethyl)cyclobutyl]guanine], the IC50 with HIV came out at 30 µM.
With `O=c1[nH]c(=O)n([C@H]2C[C@@H](CO)[C@@H]2CO)cc1/C=C/Br` (relative stereo) [[1α(E),2β,3α]-1-[2,3-Bis(hydroxymethyl)-cyclobutyl]-5-(2-bromoethenyl)-2,4(1H,3H)-pyrimidinedione], the IC50 in the experiment with HCMV and in the experiment on HSV-2 was more than 302 µM each time.
For `Nc1ncnc2c1ncn2[C@H]1C[C@@H](CO)[C@@H]1CO` (relative stereo) [(1α,2β,3α)-3-(6-Amino-9H-purin-9-yl)-1,2-cyclobutanedimethanol], the IC50 with HIV was determined as 6.8 µM.

(Values after patent publication US5130462A, “Cyclobutane derivatives” (E. R. Squibb & Sons, Inc., priority 1991, dated 1992).)
